Activity calls are given as the source filed them.
Tests used:
[1] = target: ATP-dependent molecular chaperone HSP82 (Candida albicans (strain WO-1) (Yeast), UniProt C4YTQ8); test: steroid-induced GRE reporter decrease in yeast – S. cerevisiae, luminescence, Hsp90 inhibitor project, dose response (AID 2400); type: functional, cell-based;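 further: beta-galactosidase luminescence from glucocorticoid response element reporter as proxy for Hsp90 function; inhibitor potency where signal loss means Hsp90 inhibition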
BJ = test: BJ-TERT-LT-ST fibroblast viability loss – cell-based, RAS-independent, luminescence, dose response (AID 1935); type: functional; settings: Homo sapiens;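 further: BJ fibroblasts immortalized with TERT plus LT and ST oncogenes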
H9c2 = test: cells; type: functional, cell-based; settings: Rattus norvegicus, H9c2, Myocardium;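 further: confirmatory concentration-response retest of ultra-high-throughput screening hits for modulation of myocardial damage; cell death induced by hydrogen peroxide oxidative stress; compound pretreatment for 60 min then peroxide exposure for 2 h; potency is for protecting the cells against peroxide damage rather than for killing them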
[2] = fluconazole-exposed Candida albicans growth modulators – fluorescence, retest, confirmation (AID 2467); type: functional, cell-based
[3] = target: Cell division cycle 7-related protein kinase (Homo sapiens, UniProt O00311); type: functional;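 further: value obtained from a kinome-wide kinase panel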
[4] = target: Serine/threonine-protein kinase DCLK1 (Homo sapiens, UniProt O15075); type: functional;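 further: affinity for DCLK1 (listed as DCAMKL1) measured as one member of a kinome-wide kinase profiling panel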
[5] = target: Serine/threonine-protein kinase D3 (Homo sapiens, UniProt O94806); type: functional;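 further: determined within a kinase panel screen, with PRKCN as the panel member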
Ephrin type-A receptor 2 = Ephrin type-A receptor 2 (Homo sapiens, UniProt P29317); type: functional;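 further: EPHA2 tested as one member of a kinome-wide kinase panel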
[6] = target: 5'-AMP-activated protein kinase catalytic subunit alpha-1 (Homo sapiens, UniProt Q13131); type: functional
[7] = target: Serine/threonine-protein kinase 3 (Homo sapiens, UniProt Q13188); type: functional;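 further: measured as one member of a kinome-wide kinase panel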
[8] = target: Serine/threonine-protein kinase pim-2 (Homo sapiens, UniProt Q9P1W9); type: functional;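 further: value comes from a broad kinase panel profiling study in which PIM2 was one of the panel members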
[9] = target: Vascular endothelial growth factor receptor 3 (Homo sapiens, UniProt P35916); type: functional;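 further: value from a kinome-wide profiling panel, with FLT4 as the panel member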
[10] = target: Protein kinase C zeta type (Homo sapiens, UniProt Q05513); type: functional;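 further: measured as one member of a broad kinase profiling panel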
[11] = target: Tyrosine-protein kinase Lck (Homo sapiens, UniProt P06239); type: functional;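 further: lck was assayed as one member of a kinase panel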
[12] = target: MAP kinase-activated protein kinase 5 (Homo sapiens, UniProt Q8IW41); type: functional;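 further: measured as one member of a kinome panel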
[13] = target: Mitogen-activated protein kinase 1 (Homo sapiens, UniProt P28482); type: functional
[14] = target: Mitogen-activated protein kinase kinase kinase kinase 5 (Homo sapiens, UniProt Q9Y4K4); type: functional;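 further: measured as one member of a kinome-spanning kinase panel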
[15] = target: Megakaryocyte-associated tyrosine-protein kinase (Homo sapiens, UniProt P42679); type: functional;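 further: affinity measured as one member of a kinase panel (Navigating the Kinome) against MATK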
[16] = target: Lymphokine-activated killer T-cell-originated protein kinase (Homo sapiens, UniProt Q96KB5); type: functional;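 further: value comes from a kinase panel screen in which TOPK was one of the panel members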
[17] = target: Receptor tyrosine-protein kinase erbB-2 (Homo sapiens, UniProt P04626); test: Navigating the Kinome. Panel member name: ERBB2; type: functional
[18] = target: Tyrosine-protein kinase ABL1 (Homo sapiens, UniProt P00519); type: functional
[19] = target: Serine/threonine-protein kinase PLK4 (Homo sapiens, UniProt O00444); type: functional;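 further: PLK4 measured as one member of a kinome-wide kinase profiling panel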
[20] = target: Fibroblast growth factor receptor 1 (Homo sapiens, UniProt P11362); type: functional
[21] = target: MAP kinase-activated protein kinase 3 (Homo sapiens, UniProt Q16644); type: functional;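 further: value comes from a kinome-wide profiling panel in which MAPKAPK3 is one of the panel members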
[22] = target: Mitogen-activated protein kinase 8 (Homo sapiens, UniProt P45983); type: functional;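 further: value comes from one member of a kinome-wide kinase profiling panel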
[23] = target: High affinity nerve growth factor receptor (Homo sapiens, UniProt P04629); type: functional;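 further: NTRK1 tested as one member of a kinome-wide profiling panel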
[24] = target: Death-associated protein kinase 3 (Homo sapiens, UniProt O43293); type: functional;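 further: measured as one member of a kinome-wide profiling panel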
[25] = target: Hepatocyte growth factor receptor (Homo sapiens, UniProt P08581); type: functional;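 further: kinase panel profiling across the kinome, with MET as the panel member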
[26] = target: Calcium/calmodulin-dependent protein kinase type 1 (Homo sapiens, UniProt Q14012); type: functional
[27] = target: Receptor tyrosine-protein kinase erbB-4 (Homo sapiens, UniProt Q15303); type: functional;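 further: ERBB4 member of a kinome-wide kinase profiling panel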
[28] = target: Serine/threonine-protein kinase D2 (Homo sapiens, UniProt Q9BZL6); type: functional;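 further: measured against PRKD2 as one member of a kinome-wide kinase profiling panel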
[29] = target: Cyclin-dependent kinase 1 (Homo sapiens, UniProt P06493); type: functional;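 further: Kinome-wide panel profiling, with the target listed as panel member CDC2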
[30] = target: Mast/stem cell growth factor receptor Kit (Homo sapiens, UniProt P10721); type: functional;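 further: KIT entry within a kinase panel assay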
[31] = target: Tyrosine-protein kinase JAK2 (Homo sapiens, UniProt O60674); type: functional;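 further: JAK2 tested as one member of a kinase panel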
[32] = target: cAMP-dependent protein kinase catalytic subunit PRKX (Homo sapiens, UniProt P51817); type: functional
[33] = target: Serine/threonine-protein kinase PLK3 (Homo sapiens, UniProt Q9H4B4); type: functional
[34] = target: Mitogen-activated protein kinase kinase kinase 20 (Homo sapiens, UniProt Q9NYL2); type: functional
Aurora kinase A = Aurora kinase A (Homo sapiens, UniProt O14965); type: functional;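 further: value from the Navigating the Kinome kinase panel profiling, panel entry STK6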
[35] = target: Casein kinase I isoform alpha (Homo sapiens, UniProt P48729); type: functional
[36] = target: Homeodomain-interacting protein kinase 4 (Homo sapiens, UniProt Q8NE63); type: functional
[37] = target: Dual specificity protein kinase CLK2 (Homo sapiens, UniProt P49760); type: functional
Dual specificity protein kinase CLK2, sequence (P49760 whole entry): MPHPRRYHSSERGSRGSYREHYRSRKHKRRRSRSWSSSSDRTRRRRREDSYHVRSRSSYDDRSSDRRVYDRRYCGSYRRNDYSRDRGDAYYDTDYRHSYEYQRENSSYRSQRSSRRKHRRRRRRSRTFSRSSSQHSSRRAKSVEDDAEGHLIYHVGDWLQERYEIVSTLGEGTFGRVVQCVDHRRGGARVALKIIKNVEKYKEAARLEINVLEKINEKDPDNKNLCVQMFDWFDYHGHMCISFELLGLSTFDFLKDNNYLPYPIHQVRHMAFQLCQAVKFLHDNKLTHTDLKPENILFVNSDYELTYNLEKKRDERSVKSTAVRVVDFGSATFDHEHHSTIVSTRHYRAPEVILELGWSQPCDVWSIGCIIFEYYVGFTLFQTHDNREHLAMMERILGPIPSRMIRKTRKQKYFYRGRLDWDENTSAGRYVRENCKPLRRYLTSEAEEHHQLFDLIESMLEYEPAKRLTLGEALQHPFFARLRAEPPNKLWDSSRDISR

Serine/threonine-protein kinase D3, sequence (O94806 whole entry): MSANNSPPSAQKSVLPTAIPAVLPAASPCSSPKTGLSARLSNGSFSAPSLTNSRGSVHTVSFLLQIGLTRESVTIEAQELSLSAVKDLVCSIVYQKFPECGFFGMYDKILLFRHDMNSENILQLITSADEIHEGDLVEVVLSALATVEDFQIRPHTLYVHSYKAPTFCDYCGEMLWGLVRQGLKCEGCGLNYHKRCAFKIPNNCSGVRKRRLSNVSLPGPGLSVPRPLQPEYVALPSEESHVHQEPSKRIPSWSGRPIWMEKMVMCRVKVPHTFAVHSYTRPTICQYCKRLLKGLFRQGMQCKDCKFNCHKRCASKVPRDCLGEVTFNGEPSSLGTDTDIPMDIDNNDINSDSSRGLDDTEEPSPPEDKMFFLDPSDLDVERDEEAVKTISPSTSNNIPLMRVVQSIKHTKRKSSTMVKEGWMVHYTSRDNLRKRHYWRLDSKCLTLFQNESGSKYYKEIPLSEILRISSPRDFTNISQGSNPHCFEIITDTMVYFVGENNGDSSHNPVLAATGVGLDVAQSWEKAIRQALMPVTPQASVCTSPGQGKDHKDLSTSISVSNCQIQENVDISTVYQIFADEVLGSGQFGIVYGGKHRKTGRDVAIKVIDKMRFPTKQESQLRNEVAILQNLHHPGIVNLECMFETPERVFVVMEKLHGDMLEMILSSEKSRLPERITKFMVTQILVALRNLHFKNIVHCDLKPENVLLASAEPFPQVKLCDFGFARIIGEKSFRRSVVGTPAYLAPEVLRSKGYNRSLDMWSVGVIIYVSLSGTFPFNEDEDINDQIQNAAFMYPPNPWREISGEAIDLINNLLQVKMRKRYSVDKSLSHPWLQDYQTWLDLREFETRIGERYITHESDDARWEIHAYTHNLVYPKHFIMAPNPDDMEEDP
Hepatocyte growth factor receptor, sequence (P08581 whole entry): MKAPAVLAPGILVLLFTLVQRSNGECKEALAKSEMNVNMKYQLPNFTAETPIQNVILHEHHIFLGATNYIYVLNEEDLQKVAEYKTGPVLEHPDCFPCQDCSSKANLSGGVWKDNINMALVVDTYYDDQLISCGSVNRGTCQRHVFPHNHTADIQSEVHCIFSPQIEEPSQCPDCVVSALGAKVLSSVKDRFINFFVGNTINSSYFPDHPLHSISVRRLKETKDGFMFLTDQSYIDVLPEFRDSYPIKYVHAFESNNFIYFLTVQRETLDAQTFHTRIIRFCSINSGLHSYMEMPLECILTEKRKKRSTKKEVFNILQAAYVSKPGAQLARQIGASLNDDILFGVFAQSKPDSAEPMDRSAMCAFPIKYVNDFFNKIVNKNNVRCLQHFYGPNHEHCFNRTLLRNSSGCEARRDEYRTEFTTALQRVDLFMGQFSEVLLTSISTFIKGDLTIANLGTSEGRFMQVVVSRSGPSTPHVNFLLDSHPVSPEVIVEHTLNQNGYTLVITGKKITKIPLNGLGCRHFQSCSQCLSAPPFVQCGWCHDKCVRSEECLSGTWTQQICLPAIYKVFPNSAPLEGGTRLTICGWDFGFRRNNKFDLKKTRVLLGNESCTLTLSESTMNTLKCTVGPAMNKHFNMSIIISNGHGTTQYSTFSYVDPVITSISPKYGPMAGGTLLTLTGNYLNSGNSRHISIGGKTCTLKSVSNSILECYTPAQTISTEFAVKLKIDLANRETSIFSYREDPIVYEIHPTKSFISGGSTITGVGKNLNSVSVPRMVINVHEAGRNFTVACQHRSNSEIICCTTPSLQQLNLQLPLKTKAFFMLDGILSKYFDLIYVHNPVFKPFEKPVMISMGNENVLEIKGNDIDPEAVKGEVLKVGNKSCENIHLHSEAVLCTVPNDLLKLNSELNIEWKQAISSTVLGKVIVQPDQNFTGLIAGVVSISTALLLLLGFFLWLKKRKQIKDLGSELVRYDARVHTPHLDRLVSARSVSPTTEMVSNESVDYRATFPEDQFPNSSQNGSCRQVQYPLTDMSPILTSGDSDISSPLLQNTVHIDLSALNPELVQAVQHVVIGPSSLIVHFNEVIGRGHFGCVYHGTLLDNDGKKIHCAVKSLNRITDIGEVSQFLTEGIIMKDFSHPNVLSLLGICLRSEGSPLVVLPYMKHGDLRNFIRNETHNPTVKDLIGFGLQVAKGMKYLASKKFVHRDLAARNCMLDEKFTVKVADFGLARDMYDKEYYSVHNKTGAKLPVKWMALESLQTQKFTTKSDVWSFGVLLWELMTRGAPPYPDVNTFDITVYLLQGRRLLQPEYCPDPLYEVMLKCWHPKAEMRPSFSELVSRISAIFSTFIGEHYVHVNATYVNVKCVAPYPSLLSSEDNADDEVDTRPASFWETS
Homeodomain-interacting protein kinase 4, sequence (Q8NE63 whole entry): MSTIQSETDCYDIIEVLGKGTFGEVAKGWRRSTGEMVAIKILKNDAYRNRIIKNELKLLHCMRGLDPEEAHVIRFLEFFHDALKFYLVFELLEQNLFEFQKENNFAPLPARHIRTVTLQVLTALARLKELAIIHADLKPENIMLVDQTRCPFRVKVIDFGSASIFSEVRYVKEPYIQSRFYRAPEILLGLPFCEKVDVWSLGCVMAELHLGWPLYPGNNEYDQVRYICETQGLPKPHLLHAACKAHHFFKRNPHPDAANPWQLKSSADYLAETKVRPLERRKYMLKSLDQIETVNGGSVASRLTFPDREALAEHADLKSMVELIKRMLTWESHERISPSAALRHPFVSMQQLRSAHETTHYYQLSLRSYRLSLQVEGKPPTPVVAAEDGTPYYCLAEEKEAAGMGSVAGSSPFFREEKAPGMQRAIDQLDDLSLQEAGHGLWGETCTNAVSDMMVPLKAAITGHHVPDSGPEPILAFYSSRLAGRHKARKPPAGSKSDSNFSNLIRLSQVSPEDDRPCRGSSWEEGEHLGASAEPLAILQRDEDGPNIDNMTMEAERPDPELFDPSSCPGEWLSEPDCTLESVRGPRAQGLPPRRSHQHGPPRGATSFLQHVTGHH
Tyrosine-protein kinase Lck, sequence (P06239 whole entry): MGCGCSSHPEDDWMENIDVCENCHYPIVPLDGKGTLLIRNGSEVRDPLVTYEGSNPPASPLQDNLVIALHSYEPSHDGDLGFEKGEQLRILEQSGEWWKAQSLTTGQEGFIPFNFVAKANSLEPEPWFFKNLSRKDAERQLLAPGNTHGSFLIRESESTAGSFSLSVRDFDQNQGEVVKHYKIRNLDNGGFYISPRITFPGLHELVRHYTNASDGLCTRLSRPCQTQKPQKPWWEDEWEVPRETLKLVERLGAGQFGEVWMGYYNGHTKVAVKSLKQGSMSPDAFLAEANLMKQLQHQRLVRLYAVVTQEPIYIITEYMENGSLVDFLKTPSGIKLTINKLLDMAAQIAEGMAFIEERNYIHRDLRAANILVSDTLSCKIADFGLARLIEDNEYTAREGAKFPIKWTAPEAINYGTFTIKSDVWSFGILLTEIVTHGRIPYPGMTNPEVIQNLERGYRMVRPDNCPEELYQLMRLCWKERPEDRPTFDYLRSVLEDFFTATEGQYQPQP
5'-AMP-activated protein kinase catalytic subunit alpha-1, sequence (Q13131 whole entry): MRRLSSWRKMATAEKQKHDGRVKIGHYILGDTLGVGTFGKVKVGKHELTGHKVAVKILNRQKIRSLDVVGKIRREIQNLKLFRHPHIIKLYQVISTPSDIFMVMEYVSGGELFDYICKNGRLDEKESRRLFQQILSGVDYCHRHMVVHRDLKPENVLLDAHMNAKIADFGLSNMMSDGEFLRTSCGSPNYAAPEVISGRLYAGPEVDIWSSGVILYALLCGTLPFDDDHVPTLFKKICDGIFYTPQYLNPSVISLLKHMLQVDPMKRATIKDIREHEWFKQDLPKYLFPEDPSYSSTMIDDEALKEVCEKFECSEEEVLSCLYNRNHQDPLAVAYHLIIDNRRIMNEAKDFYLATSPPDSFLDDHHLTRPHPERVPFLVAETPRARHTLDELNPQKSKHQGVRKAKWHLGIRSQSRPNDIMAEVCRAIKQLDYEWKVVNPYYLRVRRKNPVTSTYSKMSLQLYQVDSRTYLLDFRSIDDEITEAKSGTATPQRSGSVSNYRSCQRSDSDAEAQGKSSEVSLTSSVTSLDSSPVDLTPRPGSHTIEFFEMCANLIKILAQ
Death-associated protein kinase 3, sequence (O43293 whole entry): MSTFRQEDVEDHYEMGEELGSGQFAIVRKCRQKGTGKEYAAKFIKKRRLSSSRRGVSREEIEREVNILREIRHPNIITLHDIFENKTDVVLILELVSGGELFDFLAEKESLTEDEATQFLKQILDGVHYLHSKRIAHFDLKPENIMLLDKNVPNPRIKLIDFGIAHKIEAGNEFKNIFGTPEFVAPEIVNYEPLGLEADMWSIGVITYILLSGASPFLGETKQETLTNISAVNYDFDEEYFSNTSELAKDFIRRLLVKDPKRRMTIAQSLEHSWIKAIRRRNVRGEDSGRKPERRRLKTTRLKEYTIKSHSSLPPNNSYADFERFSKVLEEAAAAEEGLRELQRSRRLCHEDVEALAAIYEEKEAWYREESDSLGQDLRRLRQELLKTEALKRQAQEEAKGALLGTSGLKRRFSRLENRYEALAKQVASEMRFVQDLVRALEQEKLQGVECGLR

Structure (SMILES): COc1ccc(-c2nnc(NC(=O)c3ccc(F)cc3)o2)cc1
- EC50 [1]: > 150 µM (inactive)
- EC50 (BJ): > 150 µM (not active)
- IC50 (H9c2): > 79 µM (inactive)
- EC50 [2]: 0.305 µM (active)

Structure (SMILES): CCn1c(-c2nonc2N)nc2cnc(Oc3cccc(NC(=O)c4ccc(OCCN5CCOCC5)cc4)c3)cc21 [GSK-269962A]
- Ki [3]: 0.0794 µM (active)
- Ki [4]: > 10 µM (inactive)
- Ki [5]: 2.51 µM (active)
- Ki (Ephrin type-A receptor 2): > 3.16 µM (inactive)
- Ki [6]: > 1.58 µM (inactive)
- Ki [7]: > 7.94 µM (inactive)
- Ki [8]: > 1.58 µM (inactive)
- Ki [9]: 3.16 µM (active)
- Ki [10]: 0.0251 µM (active)
- Ki [11]: 2.51 µM (active)
- Ki [12]: > 1.58 µM (inactive)
- Ki [13]: > 7.94 µM (inactive)
- Ki [14]: 1.58 µM (active)
- Ki [15]: > 2 µM (inactive)
- Ki [16]: > 10 µM (inactive)
- Ki [17]: > 1.58 µM (inactive)
- Ki [18]: > 0.631 µM (inactive)
- Ki [19]: 0.316 µM (active)
- Ki [20]: > 5.01 µM (inactive)
- Ki [21]: > 10 µM (inactive)
- Ki [22]: > 3.16 µM (inactive)
- Ki [23]: > 2.51 µM (inactive)
- Ki [24]: 0.501 µM (active)
- Ki [25]: > 3.16 µM (inactive)
- Ki [26]: > 5.01 µM (inactive)
- Ki [27]: > 3.98 µM (inactive)
- Ki [28]: 2 µM (active)
- Ki [29]: > 7.94 µM (inactive)
- Ki [30]: > 1.26 µM (inactive)
- Ki [31]: > 1.58 µM (inactive)
- Ki [32]: 0.0501 µM (active)
- Ki [33]: > 7.94 µM (inactive)
- Ki [34]: > 7.94 µM (inactive)
- Ki (Aurora kinase A): 0.501 µM (active)
- Ki [35]: > 6.31 µM (inactive)
- Ki [36]: 5.01 µM (active)
- Ki [37]: > 7.94 µM (inactive)
